According to the supplement of paper PMC10307832:

What was measured:
Test in all cases: relative viability (nuclei count vs DMSO), 5 days (fraction); higher = more cells survive
A-427 = test system: A-427
How it was run: (§1)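 After 5 days of treatment, lung cancer cells in 1536-well plates were fixed and stained in a single step (final 0.05% Triton X-100, 1% formaldehyde, 1 ug/ml Hoechst) and their nuclei counted on 4× images. Treatment had been applied by pin tool the day after seeding as one drug alone or as a fixed anchor-drug dose with five library-drug doses (not always all listed) in √10 steps. Relative viability is the nuclei count of treated wells divided by that of vehicle wells, and values are medians of duplicate plates.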

ABC-1 = test system: ABC-1
How it was run: as §1

EMC-BAC-2 = test system: EMC-BAC-2
How it was run: as §1

HARA = test system: HARA
How it was run: as §1

HOP-62 = test system: HOP-62
How it was run: as §1

LK-2 = test system: LK-2
How it was run: as §1

LXF-289 = test system: LXF-289
How it was run: as §1

NCI-H1792 = test system: NCI-H1792
How it was run: as §1

NCI-H1944 = test system: NCI-H1944
How it was run: as §1

NCI-H1993 = test system: NCI-H1993
How it was run: as §1

NCI-H2170 = test system: NCI-H2170
How it was run: as §1

NCI-H3122 = test system: NCI-H3122
How it was run: as §1

NCI-H322M = test system: NCI-H322M
How it was run: as §1

NCI-H522 = test system: NCI-H522
How it was run: as §1

NCI-H596 = test system: NCI-H596
How it was run: as §1

NCI-H727 = test system: NCI-H727
How it was run: as §1

PC-3 [JPC-3] = test system: PC-3 [JPC-3]
How it was run: as §1

SW 900 = test system: SW 900
How it was run: as §1

## Nc1ccn([C@@H]2O[C@H](CO)[C@@H](O)[C@@H]2O)c(=O)n1 [Cytarabine] + NC(=O)Nc1cc(-c2cccc(F)c2)sc1C(=O)N[C@H]1CCCNC1 [AZD7762] (partner 0.2 µM)
A-427; first compound 0.005 µM
  relative viability: 0.343
A-427; first compound 0.01581 µM
  relative viability: 0.246
A-427; first compound 0.05 µM
  relative viability: 0.218
A-427; first compound 0.1581 µM
  relative viability: 0.184
A-427; first compound 0.5 µM
  relative viability: 0.184
ABC-1; first compound 0.005 µM
  relative viability: 0.626
ABC-1; first compound 0.01581 µM
  relative viability: 0.899
ABC-1; first compound 0.05 µM
  relative viability: 0.745
ABC-1; first compound 0.1581 µM
  relative viability: 0.744
ABC-1; first compound 0.5 µM
  relative viability: 0.666
EMC-BAC-2; first compound 0.005 µM
  relative viability: 1.09
EMC-BAC-2; first compound 0.01581 µM
  relative viability: 0.97
EMC-BAC-2; first compound 0.05 µM
  relative viability: 0.674
EMC-BAC-2; first compound 0.1581 µM
  relative viability: 0.344
EMC-BAC-2; first compound 0.5 µM
  relative viability: 0.308
HARA; first compound 0.005 µM
  relative viability: 0.298
HARA; first compound 0.01581 µM
  relative viability: 0.211
HARA; first compound 0.05 µM
  relative viability: 0.176
HARA; first compound 0.1581 µM
  relative viability: 0.157
HARA; first compound 0.5 µM
  relative viability: 0.171
HOP-62; first compound 0.005 µM
  relative viability: 0.391
HOP-62; first compound 0.01581 µM
  relative viability: 0.157
HOP-62; first compound 0.05 µM
  relative viability: 0.203
HOP-62; first compound 0.1581 µM
  relative viability: 0.107
HOP-62; first compound 0.5 µM
  relative viability: 0.0888
LK-2; first compound 0.005 µM
  relative viability: 0.3
LK-2; first compound 0.01581 µM
  relative viability: 0.13
LK-2; first compound 0.05 µM
  relative viability: 0.0997
LK-2; first compound 0.1581 µM
  relative viability: 0.0979
LK-2; first compound 0.5 µM
  relative viability: 0.12
LXF-289; first compound 0.005 µM
  relative viability: 0.927
LXF-289; first compound 0.01581 µM
  relative viability: 0.85
LXF-289; first compound 0.05 µM
  relative viability: 0.442
LXF-289; first compound 0.1581 µM
  relative viability: 0.123
LXF-289; first compound 0.5 µM
  relative viability: 0.0877
NCI-H1792; first compound 0.01581 µM
  relative viability: 0.39
NCI-H1792; first compound 0.05 µM
  relative viability: 0.275
NCI-H1792; first compound 0.1581 µM
  relative viability: 0.0675
NCI-H1792; first compound 0.5 µM
  relative viability: 0.0488
NCI-H1944; first compound 0.005 µM
  relative viability: 0.353
NCI-H1944; first compound 0.01581 µM
  relative viability: 0.204
NCI-H1944; first compound 0.05 µM
  relative viability: 0.159
NCI-H1944; first compound 0.1581 µM
  relative viability: 0.12
NCI-H1944; first compound 0.5 µM
  relative viability: 0.135
NCI-H1993; first compound 0.005 µM
  relative viability: 0.766
NCI-H1993; first compound 0.01581 µM
  relative viability: 0.562
NCI-H1993; first compound 0.05 µM
  relative viability: 0.654
NCI-H1993; first compound 0.1581 µM
  relative viability: 0.523
NCI-H1993; first compound 0.5 µM
  relative viability: 0.523
NCI-H2170; first compound 0.005 µM
  relative viability: 0.666
NCI-H2170; first compound 0.01581 µM
  relative viability: 0.515
NCI-H2170; first compound 0.05 µM
  relative viability: 0.347
NCI-H2170; first compound 0.1581 µM
  relative viability: 0.173
NCI-H2170; first compound 0.5 µM
  relative viability: 0.136
NCI-H3122; first compound 0.005 µM
  relative viability: 0.943
NCI-H3122; first compound 0.01581 µM
  relative viability: 0.585
NCI-H3122; first compound 0.05 µM
  relative viability: 0.397
NCI-H3122; first compound 0.1581 µM
  relative viability: 0.184
NCI-H3122; first compound 0.5 µM
  relative viability: 0.138
NCI-H322M; first compound 0.005 µM
  relative viability: 0.405
NCI-H322M; first compound 0.01581 µM
  relative viability: 0.494
NCI-H322M; first compound 0.05 µM
  relative viability: 0.405
NCI-H322M; first compound 0.1581 µM
  relative viability: 0.371
NCI-H322M; first compound 0.5 µM
  relative viability: 0.385
NCI-H522; first compound 0.005 µM
  relative viability: 0.827
NCI-H522; first compound 0.01581 µM
  relative viability: 0.605
NCI-H522; first compound 0.05 µM
  relative viability: 0.72
NCI-H522; first compound 0.1581 µM
  relative viability: 0.426
NCI-H522; first compound 0.5 µM
  relative viability: 0.34
NCI-H596; first compound 0.005 µM
  relative viability: 1
NCI-H596; first compound 0.01581 µM
  relative viability: 1.01
NCI-H596; first compound 0.05 µM
  relative viability: 0.787
NCI-H596; first compound 0.1581 µM
  relative viability: 0.419
NCI-H596; first compound 0.5 µM
  relative viability: 0.343
NCI-H727; first compound 0.005 µM
  relative viability: 0.518
NCI-H727; first compound 0.01581 µM
  relative viability: 0.565
NCI-H727; first compound 0.05 µM
  relative viability: 0.377
NCI-H727; first compound 0.1581 µM
  relative viability: 0.361
NCI-H727; first compound 0.5 µM
  relative viability: 0.418
PC-3 [JPC-3]; first compound 0.005 µM
  relative viability: 0.746
PC-3 [JPC-3]; first compound 0.01581 µM
  relative viability: 0.809
PC-3 [JPC-3]; first compound 0.05 µM
  relative viability: 0.676
PC-3 [JPC-3]; first compound 0.1581 µM
  relative viability: 0.395
PC-3 [JPC-3]; first compound 0.5 µM
  relative viability: 0.425
SW 900; first compound 0.005 µM
  relative viability: 0.741
SW 900; first compound 0.01581 µM
  relative viability: 0.546
SW 900; first compound 0.05 µM
  relative viability: 0.451
SW 900; first compound 0.1581 µM
  relative viability: 0.191
SW 900; first compound 0.5 µM
  relative viability: 0.16
